Tests used:
Ec-FtsZ [1] = molecular target: T1, Ec-FtsZ (Escherichia coli, UniProt P0A9A6); assay: enzyme-coupled GTPase assay, dose response; format: biochemical
T1 construct: N-terminal His tag, from strain MG1655
T1 sequence (P0A9A6 1-383): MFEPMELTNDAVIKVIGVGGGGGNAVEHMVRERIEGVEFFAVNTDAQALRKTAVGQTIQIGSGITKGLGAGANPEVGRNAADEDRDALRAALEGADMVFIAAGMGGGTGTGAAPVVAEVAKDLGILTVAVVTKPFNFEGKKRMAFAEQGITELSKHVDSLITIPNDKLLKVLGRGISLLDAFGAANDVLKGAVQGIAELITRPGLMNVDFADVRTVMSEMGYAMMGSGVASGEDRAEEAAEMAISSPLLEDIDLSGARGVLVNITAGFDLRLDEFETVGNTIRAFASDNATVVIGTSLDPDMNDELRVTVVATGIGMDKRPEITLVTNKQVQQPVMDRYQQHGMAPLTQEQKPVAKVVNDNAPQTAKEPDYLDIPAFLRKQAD

Ec-FtsZ [2] = molecular target: T1, Ec-FtsZ; assay: enzyme-coupled GTPase assay, specific activity; format: biochemical
(UniProt Q5GS34) = molecular target: T2, (UniProt Q5GS34); assay: enzyme-coupled (PK/LDH, NADH) GTPase assay; format: biochemical, Wolbachia endosymbiont of Brugia malayi
T2 construct: gene ftsZ; full-length, N-terminal His6 tag
T2 sequence (Q5GS34 1-396 limits assumed): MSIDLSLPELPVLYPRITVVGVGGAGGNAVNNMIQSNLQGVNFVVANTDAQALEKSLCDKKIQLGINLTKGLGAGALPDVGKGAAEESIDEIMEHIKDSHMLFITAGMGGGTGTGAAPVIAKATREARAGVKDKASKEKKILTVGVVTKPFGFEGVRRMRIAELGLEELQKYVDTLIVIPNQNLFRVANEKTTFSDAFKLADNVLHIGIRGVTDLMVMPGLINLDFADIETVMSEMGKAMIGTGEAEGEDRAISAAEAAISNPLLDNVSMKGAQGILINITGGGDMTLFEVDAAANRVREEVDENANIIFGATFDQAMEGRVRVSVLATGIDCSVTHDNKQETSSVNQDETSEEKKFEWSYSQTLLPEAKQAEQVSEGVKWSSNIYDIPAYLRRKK

Ec-FtsZ [3] = molecular target: T1, Ec-FtsZ; assay: enzyme-coupled (PK/LDH, NADH) GTPase assay; format: biochemical

## COc1ccc(-c2ccc(C(C(=O)NC3CCCCC3)N(Cc3ccccn3)C(=O)c3ccccc3)cc2)cc1 (centres unmarked) [AV-C6]
Ec-FtsZ [1]
  enzyme-coupled GTPase assay, dose response: both compounds inhibited Ec-FtsZ activity although each was slightly less potent

## CCCCNC(=O)C(c1ccc2cc(O)ccc2c1)N(Cc1ccc(Cl)cc1)C(=O)CCC (centres unmarked) [N938]
Ec-FtsZ [1]
  enzyme-coupled GTPase assay, dose response: both compounds inhibited Ec-FtsZ activity although each was slightly less potent

## Nc1nc2c(ncn2[C@@H]2O[C@H](COP(=O)(O)OP(=O)(O)OP(=O)(O)O)[C@@H](O)[C@H]2O)c(=O)[nH]1 [GTP]
Ec-FtsZ [2]
  enzyme-coupled GTPase assay, specific activity: 0.22 ± 0.015 µmol/min/mg

## COc1ccc2cc3[n+](cc2c1OC)CCc1cc2c(cc1-3)OCO2 [berberine]
(UniProt Q5GS34)
  IC50: 320 µM
Ec-FtsZ [3]
  IC50: 240 µM

Reference: publication PMC3226453, “Targeting the Wolbachia Cell Division Protein FtsZ as a New Approach for Antifilarial Therapy” (PLoS Neglected Tropical Diseases, 2011)
